Laboratory results reported in the supplement of paper PMC10883282.

Legend:
Assay in all cases: relative viability vs DMSO control (72 h) (fraction); higher = more viable cells
[1] = system: RD
In short: (§1)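 Sarcoma cell lines in 384-well plates, seeded to reach 80–90% confluence, were given compound after 24 h and kept 72 h at 37 °C, 5% CO2, with 0.1% DMSO vehicle and a 5 µM positive control. Relative viability came from ATPLite as percent growth, averaged over up to triplicate wells. On the rescaled values, 1 equals full and 0 equals none.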

[2] = system: SK-ES-1
In short: as §1

[3] = system: HT1080
In short: as §1

[4] = system: KHOS-240S
In short: as §1

[5] = system: SK-LMS-1
In short: as §1

[6] = system: VA-ES-BJ
In short: as §1

[7] = system: MES-SA
In short: as §1

[8] = system: G401
In short: as §1

[9] = system: SW1353
In short: as §1

[10] = system: RD-ES
In short: as §1

[11] = system: SYO-1
In short: as §1

[12] = system: SW982
In short: as §1

CCC(=O)N1CC[C@H](Nc2ncnc3c2CN(c2cnc(OC)c(C(F)(F)F)c2)CC3)C1 [Leniolisib]
Conditions | relative viability
[1], 0.00017 µM | 1.08
[1], 0.00051 µM | 1.09
[1], 0.00152 µM | 1.11
[1], 0.00457 µM | 1.11
[1], 0.01372 µM | 1.12
[1], 0.04115 µM | 1.09
[1], 0.1235 µM | 1.09
[1], 0.3704 µM | 1.11
[1], 1.111 µM | 1.09
[1], 3.333 µM | 1.05
[1], 10 µM | 0.886
[2], 0.00017 µM | 1.04
[2], 0.00051 µM | 1.02
[2], 0.00152 µM | 1.07
[2], 0.00457 µM | 1.02
[2], 0.01372 µM | 1.04
[2], 0.04115 µM | 1.05
[2], 0.1235 µM | 1.01
[2], 0.3704 µM | 1
[2], 1.111 µM | 0.999
[2], 3.333 µM | 0.898
[2], 10 µM | 0.741
[3], 0.00017 µM | 1.09
[3], 0.00051 µM | 1.077
[3], 0.00152 µM | 1.1
[3], 0.00457 µM | 1.09
[3], 0.01372 µM | 1.05
[3], 0.04115 µM | 1.038
[3], 0.1235 µM | 1.05
[3], 0.3704 µM | 1.04
[3], 1.111 µM | 1.03
[3], 3.333 µM | 1.04
[3], 10 µM | 0.94
[4], 0.00017 µM | 1.03
[4], 0.00051 µM | 1.05
[4], 0.00152 µM | 1.05
[4], 0.00457 µM | 1.06
[4], 0.01372 µM | 1.05
[4], 0.04115 µM | 1.02
[4], 0.1235 µM | 1.017
[4], 0.3704 µM | 0.997
[4], 1.111 µM | 0.975
[4], 3.333 µM | 0.9
[4], 10 µM | 0.8026
[5], 0.00017 µM | 1.11
[5], 0.00051 µM | 1.07
[5], 0.00152 µM | 1.1
[5], 0.00457 µM | 1.08
[5], 0.01372 µM | 1.05
[5], 0.04115 µM | 1.04
[5], 0.1235 µM | 1.06
[5], 0.3704 µM | 0.998
[5], 1.111 µM | 0.939
[5], 3.333 µM | 0.827
[5], 10 µM | 0.712
[6], 0.00017 µM | 1.08
[6], 0.00051 µM | 1.09
[6], 0.00152 µM | 1.05
[6], 0.00457 µM | 1.04
[6], 0.01372 µM | 1.02
[6], 0.04115 µM | 1.06
[6], 0.1235 µM | 1.01
[6], 0.3704 µM | 1
[6], 1.111 µM | 0.984
[6], 3.333 µM | 0.88
[6], 10 µM | 0.645
[7], 0.00017 µM | 0.966
[7], 0.00051 µM | 0.94
[7], 0.00152 µM | 0.932
[7], 0.00457 µM | 0.934
[7], 0.01372 µM | 0.936
[7], 0.04115 µM | 0.906
[7], 0.1235 µM | 0.922
[7], 0.3704 µM | 0.895
[7], 1.111 µM | 0.8678
[7], 3.333 µM | 0.786
[7], 10 µM | 0.585
[8], 0.00017 µM | 1.02
[8], 0.00051 µM | 1
[8], 0.00152 µM | 1.01
[8], 0.00457 µM | 1.01
[8], 0.01372 µM | 1.02
[8], 0.04115 µM | 0.973
[8], 0.1235 µM | 0.947
[8], 0.3704 µM | 0.936
[8], 1.111 µM | 0.868
[8], 3.333 µM | 0.835
[8], 10 µM | 0.689
[9], 0.00017 µM | 1.02
[9], 0.00051 µM | 1.04
[9], 0.00152 µM | 0.985
[9], 0.00457 µM | 0.999
[9], 0.01372 µM | 0.97
[9], 0.04115 µM | 0.9439
[9], 0.1235 µM | 0.953
[9], 0.3704 µM | 0.931
[9], 1.111 µM | 0.885
[9], 3.333 µM | 0.826
[9], 10 µM | 0.692
[10], 0.00017 µM | 0.985
[10], 0.00051 µM | 1.034
[10], 0.00152 µM | 1.03
[10], 0.00457 µM | 1.03
[10], 0.01372 µM | 1
[10], 0.04115 µM | 1.02
[10], 0.1235 µM | 0.989
[10], 0.3704 µM | 0.958
[10], 1.111 µM | 0.908
[10], 3.333 µM | 0.856
[10], 10 µM | 0.709
[11], 0.00017 µM | 1.03
[11], 0.00051 µM | 0.999
[11], 0.00152 µM | 0.984
[11], 0.00457 µM | 0.965
[11], 0.01372 µM | 0.947
[11], 0.04115 µM | 0.949
[11], 0.1235 µM | 0.933
[11], 0.3704 µM | 0.886
[11], 1.111 µM | 0.875
[11], 3.333 µM | 0.816
[11], 10 µM | 0.724
[12], 0.00017 µM | 1.02
[12], 0.00051 µM | 1.05
[12], 0.00152 µM | 1.05
[12], 0.00457 µM | 1.05
[12], 0.01372 µM | 1.06
[12], 0.04115 µM | 1.06
[12], 0.1235 µM | 1.02
[12], 0.3704 µM | 1.02
[12], 1.111 µM | 0.985
[12], 3.333 µM | 0.836
[12], 10 µM | 0.678
